Data reported in US20060069132A1, “Azolecarboxamide herbicides” (priority 2004, published 2006).

Legend:
[1] = test system: barnyardgrass; assay: Test A pre-/postemergence herbicide test; format: in vivo, Echinochloa crus-galli
Summary of the method: (§1)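 Plants are held in greenhouse about ten days after treatment, then compared with untreated controls and scored 0 (no effect) to 100 (complete control). Preemergence dosing is a directed soil spray on sown sandy loam; postemergence dosing is spray to runoff at 2–10 cm height.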

[2] = test system: large crabgrass; assay: Test A pre-/postemergence herbicide test; format: in vivo, Digitaria sanguinalis
Summary of the method: as §1

[3] = test system: giant foxtail; assay: Test A pre-/postemergence herbicide test; format: in vivo, Setaria faberi
Summary of the method: as §1

[4] = test system: morningglory; assay: Test A pre-/postemergence herbicide test; format: in vivo, Ipomoea spp.
Summary of the method: as §1

[5] = test system: redroot pigweed; assay: Test A pre-/postemergence herbicide test; format: in vivo, Amaranthus retroflexus
Summary of the method: as §1

[6] = test system: velvetleaf; assay: Test A pre-/postemergence herbicide test; format: in vivo, Abutilon theophrasti
Summary of the method: as §1

[7] = test system: barnyardgrass; assay: Test B pre-/postemergence herbicide test; format: in vivo, Echinochloa crus-galli
Summary of the method: (§2)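 Flooded paddy rice and barnyardgrass were treated at the 2-leaf stage; upland plantings received compound either on sown seed or on 1- to 4-leaf seedlings. All were kept 13–15 days in a greenhouse and scored visually, 0–100, relative to untreated plants.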

[8] = test system: Surinam grass; assay: Test B pre-/postemergence herbicide test; format: in vivo, Urochloa decumbens
Summary of the method: (§3)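 Evaluation is visual, comparing treated with control plants on a scale where 0 means no effect and 100 means full control. Treatments were preemergence, or postemergence on seedlings 2–18 cm tall, and held 13–15 days in the greenhouse.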

[9] = test system: cocklebur; assay: Test B pre-/postemergence herbicide test; format: in vivo, Xanthium strumarium
Summary of the method: as §2

[10] = test system: corn; assay: Test B pre-/postemergence herbicide test; format: in vivo, Zea mays
Summary of the method: as §3

[11] = test system: large crabgrass; assay: Test B pre-/postemergence herbicide test; format: in vivo, Digitaria sanguinalis
Summary of the method: as §3

[12] = test system: giant foxtail; assay: Test B pre-/postemergence herbicide test; format: in vivo, Setaria faberi
Summary of the method: as §3

[13] = test system: lambsquarters; assay: Test B pre-/postemergence herbicide test; format: in vivo, Chenopodium album
Summary of the method: as §3

[14] = test system: morningglory; assay: Test B pre-/postemergence herbicide test; format: in vivo, Ipomoea coccinea
Summary of the method: as §2

[15] = test system: pigweed; assay: Test B pre-/postemergence herbicide test; format: in vivo, Amaranthus retroflexus
Summary of the method: as §3

[16] = test system: rice; assay: Test B pre-/postemergence herbicide test; format: in vivo, Oryza sativa; settings: preemergence
Summary of the method: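 Plants compared with untreated controls 13–15 days post-treatment and given a visual 0–100 injury score. Applications: preemergence to seeds; postemergence at 1- to 4-leaf (2–18 cm); paddy species flooded, 2-leaf stage. Vehicle non-phytotoxic, surfactant included.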

[17] = test system: velvetleaf; assay: Test B pre-/postemergence herbicide test; format: in vivo, Abutilon theophrasti
Summary of the method: as §3

[18] = test system: blackgrass; assay: Test B postemergence herbicide test; format: in vivo, Alopecurus myosuroides; settings: scale 0 (no effect) to 100 (complete control)
Summary of the method: (§4)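 After treating 2-leaf paddy plants or 2–18 cm postemergence plants (1 to 4 leaves) with formulated chemical, researchers kept them in a greenhouse for 13–15 days. Effects were judged visually versus controls: 0 indicates none, 100 total control.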

[19] = test system: wheat; assay: Test B postemergence herbicide test; format: in vivo, Triticum aestivum; set-up: key to Wheat plant response rating: 0 = no effect, 100 = complete control; settings: scale 0 (no effect) to 100 (complete control)
Summary of the method: as §4

[20] = test system: wild oat; assay: Test B postemergence herbicide test; format: in vivo, Avena fatua; settings: scale 0 (no effect) to 100 (complete control)
Summary of the method: as §4

[21] = test system: rice; assay: Test B flooded paddy test; format: in vivo, Oryza sativa; settings: 1000 g ai/ha, visual rating, scale 0 to 100 (0 no effect, 100 complete control), 13 to 15 days
Summary of the method: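 Each value is a visual 0–100 response rating taken against controls 13 to 15 days after treatment in the greenhouse. Plants received formulated chemical postemergence at the 1- to 4-leaf stage or, in flooded paddy, at the 2-leaf stage.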

[22] = test system: small flower umbrella sedge; assay: Test B flooded paddy test; format: in vivo, Cyperus difformis; settings: 1000 g ai/ha, visual rating, scale 0 to 100 (0 no effect, 100 complete control), 13 to 15 days
Summary of the method: as §4

[23] = test system: ducksalad; assay: Test B flooded paddy test; format: in vivo, Heteranthera limosa; settings: 1000 g ai/ha, visual rating, scale 0 to 100 (0 no effect, 100 complete control), 13 to 15 days
Summary of the method: as §4

[24] = test system: barnyardgrass; assay: Test B flooded paddy test; format: in vivo, Echinochloa crus-galli; settings: 1000 g ai/ha, visual rating, scale 0 to 100 (0 no effect, 100 complete control), 13 to 15 days
Summary of the method: as §4

[25] = Postemergence, 500 g ai/ha, 0 to 100 scale, 0 no effect, 100 complete control
[26] = Postemergence, 2000 g ai/ha, 0 to 100 scale, 0 no effect, 100 complete control
[27] = Preemergence, 500 g ai/ha, visual rating, 0 to 100 scale (0 no effect, 100 complete control)
[28] = Preemergence, 2000 g ai/ha, 0 to 100 scale, 0 no effect, 100 complete control
[29] = 500 g ai/ha, visual rating 0-100, 0 no effect, 100 complete control, preemergence
[30] = Postemergence, 500 g ai/ha, visual rating after 13 to 15 days, scale 0 (no effect) to 100 (complete control)
[31] = postemergence, 125 g ai/ha, visual rating, scale 0 (no effect) to 100 (complete control)
[32] = preemergence, 125 g ai/ha, 0 to 100 scale, 0 is no effect, 100 is complete control
[33] = Postemergence, 500 g ai/ha, visual rating after 13 to 15 days
[34] = postemergence, 125 g ai/ha, visual rating

CCn1nc(C(C)(C)C)cc1C(=O)Nc1cccc(C(=O)OCC2CC2)c1C [Compound 93]
70: Crabgrass, Large plant response rating [2, 28] | Pigweed plant response rating [5, 28] | Plant response rating, Lambsquarters [13, 29] | Plant response rating, Pigweed [15, 29] | Sedge, Umbrella plant response rating [22]
15: Plant response rating, Crabgrass, Large [2, 26] | Plant response rating, Velvetleaf [6, 26]
60: Foxtail, Giant plant response rating [3, 28] | Lambsquarters plant response rating [13, 31]
90: Plant response rating, Lambsquarters [13, 30]
50: Plant response rating, Cocklebur [9, 30] | Cocklebur plant response rating [9, 31]
40: Barnyardgrass plant response rating [1, 28] | Pigweed plant response rating [5, 27] | Plant response rating, Morningglory [14, 30]
20: Barnyardgrass plant response rating [1, 25] | Morningglory plant response rating [4, 28] | Pigweed plant response rating [5, 25] | Plant response rating, Barnyardgrass [7, 29] | Plant response rating, Corn [10, 30] | Plant response rating, Crabgrass, Large [11, 29] | Rice plant response rating [21]
35: Crabgrass, Large plant response rating [2, 27] | Foxtail, Giant plant response rating [3, 27]
0: Plant response rating, Barnyardgrass [7, 32] | Plant response rating, Surinam Grass [8, 29] | Plant response rating, Surinam Grass [8, 32] | Plant response rating, Cocklebur [9, 29] | Plant response rating, Cocklebur [9, 32] | Plant response rating, Lambsquarters [13, 32] | Plant response rating, Morningglory [14, 32] | Plant response rating, Pigweed [15, 32] | Plant response rating, Rice ([16]; 500 g ai/ha, visual rating 0-100, 0 no effect, 100 complete control) | Plant response rating, Rice ([16]; 125 g ai/ha, 0 to 100 scale, 0 is no effect, 100 is complete control) | Plant response rating, Velvetleaf [17, 32] | Barnyardgrass plant response rating [24]
5: Morningglory plant response rating [4, 25] | Morningglory plant response rating [4, 27]
30: Plant response rating, Pigweed [5, 26] | Plant response rating, Foxtail, Giant [12, 29] | Plant response rating, Pigweed [15, 30]
10: Crabgrass, Large plant response rating [2, 25] | Foxtail, Giant plant response rating [3, 25] | Plant response rating, Foxtail, Giant [3, 26] | Plant response rating, Morningglory [4, 26] | Velvetleaf plant response rating [6, 25] | Velvetleaf plant response rating [6, 27] | Plant response rating, Barnyardgrass [7, 30] | Barnyardgrass plant response rating [7, 31] | Plant response rating, Surinam Grass [8, 30] | Surinam Grass plant response rating [8, 31] | Plant response rating, Corn [10, 29] | Corn plant response rating [10, 31] | Plant response rating, Corn [10, 32] | Plant response rating, Crabgrass, Large [11, 30] | Crabgrass, Large plant response rating [11, 31] | Plant response rating, Crabgrass, Large [11, 32] | Plant response rating, Foxtail, Giant [12, 30] | Foxtail, Giant plant response rating [12, 31] | Plant response rating, Foxtail, Giant [12, 32] | Plant response rating, Morningglory [14, 29] | Morningglory plant response rating [14, 31] | Pigweed plant response rating [15, 31] | Plant response rating, Velvetleaf [17, 29] | Plant response rating, Velvetleaf [17, 30] | Velvetleaf plant response rating [17, 31] | Plant response rating, Blackgrass [18, 33] | Blackgrass plant response rating [18, 34] | Plant response rating, Wheat [19, 33] | Wheat plant response rating [19, 34] | Plant response rating, Oat, Wild [20, 33] | Oat, Wild plant response rating [20, 34] | Ducksalad plant response rating [23]
25: Plant response rating, Barnyardgrass [1, 26] | Barnyardgrass plant response rating [1, 27] | Velvetleaf plant response rating ([6]; Preemergence, 2000 g ai/ha, visual rating, 0 to 100 scale (0 no effect, 100 complete control))
